The values below come from publication PMC2939023, “Attenuated T Cell Responses to a High-Potency Ligand In Vivo” (PLoS Biology, 2010).

“Also recorded” adds a separate entry of the source. Where no end group is shown, it is not given here.

In data set [1] the test system is 5C.C7 RAG2−/− lymphocytes. In kind it is cell-based, mouse. The note with it: 3 h. As to the method: Cells were cultured in a 37°C humidified chamber with 5% C0_2 in complete RPMI1640 (supplemented with 10% FCS, […], 100 U/mL penicillin and streptomycin, 2 µM 2-mercaptoethanol). Single-cell suspensions were prepared from lymph nodes harvested from 5C.C7 RAG2-deficient mice (routinely >90% Vα11+Vβ3+ by flow cytometry) and stimulated in triplicate in 96-well round-bottom plates with irradiated (2,000 rad) B10.A splenocytes and the indicated peptides for 60 h. Proliferation was monitored by the addition of ^3H-methyl-thymidine (1 µCi/well). Cells were harvested onto glass-fiber filters using a Tomtec harvester, and filters were counted using a MicroBeta scintillation counter (Perkin-Elmer).

Data set [2] has as its system 5C.C7 T cells. Kind of data set: In vivo antigen persistence (division of later transferred 5C.C7 T cells). The note with it: peptide injected 4, 2, 1, 0 wk before transfer; division at 48 h; in words. Further details: species or system mouse. An excerpt:
We addressed potential differential in vivo antigen persistence by injecting MCC or K5 peptide at various times prior to transfer of CFSE-labeled 5C.C7 T cells (Figure S7). In this experiment, the extent of division of the transferred T cells serves as a readout of amount of antigen present. […] We then considered the possibility that the blunted responses were occurring because the amount of K5 pMHC complexes was limiting in vivo. In order to directly examine the stimulatory function of in vivo–pulsed APCs, we used irradiated splenic DCs isolated from mice immunized with the different peptides to activate naïve 5C.C7 T cells in vitro, without the addition of exogenous peptide (Figure 2B,C).
Supplementary file pbio.1000481.s007.eps: Figure S7 MCC and K5 peptides persist equally in vivo. B10.A mice were immunized with the indicated peptides at 4, 2, 1, and 0 wk before adoptive transfer of CFSE-labeled 5C.C7 T cells. 5C.C7 T cell division was analyzed at 48 h after transfer as a measure of peptide antigen persistence over time. All histograms are gated on CD4^+CD45.1^+ 5C.C7 T cells. Data shown are representative of two mice per condition and two experiments. (0.99 MB EPS) Click here for additional data file.

Data set [3] relates to OT-1 TCR. The note with it: OT-1 TCR ligands, Listeria monocytogenes; in words; ref [25]; cited from earlier work. An excerpt:
The reason we observed attenuation at the high end of the ligand potency spectrum may be because we were able to examine T cell responses to a superagonist peptide, which possibly exceeds a ligand potency threshold at which T cell attenuation is observed. Attempts to find other strong 5C.C7 TCR ligands, which would facilitate examination o ...

Regarding ANERADLIAYLKQASK [102S], in data set [1], the EC50 amounted to 0.16 µM.

Take ANERADLIAYFKAATKF [K5]: the “In vivo peptide antigen persistence” value in data set [2] is “persist equally and for a few weeks in vivo”. The sequence also returned an EC50 in data set [1] of 0.0175 µM.

Consider SIINFEKL [natural OT-1 TCR ligand], for which the “Potency of T cell responses in vitro and in vivo” value in data set [3] was “induced the most robust response; also recorded: exhibited the most potent responses in vitro and in vivo”.

Consider “ANERADLIAYLKQATK [MCC, moth cytochrome c (MCC) peptide]”, for which the “In vivo peptide antigen persistence” value in data set [2] was “persist equally and for a few weeks in vivo”. For the same sequence, in data set [1], the 50% effective concentration (EC50) came to 0.0378 µM.

ANERADLIAYPKAATKF [K3] showed an EC50 in data set [1] of 0.0249 µM.

A word on the EC50: it is the concentration giving half of the maximal effect.
